The structures appear in SMILES notation.

As usually defined, the melting point is the temperature, or range, at which the solid turns liquid. Molecule `CCCCCCCCCCCCCCCCCCCCCCCCCCCCOC(=O)c1cccnc1` [1-octacosanyl nicotinate] returned a melting point of 65 to 70 °C.

`CCCCCCCCCCCCCCCCCCCCCCCCCCCCOC(=O)c1cccnc1.Cl` had a melting point of 58 to 60 °C.

The record behind these values is US7615641B2, “Long chain aliphatic alcohol derivatives and methods of making and using same” (Sino Pharmaceuticals Corporation, priority 2004, dated 2009).
